Our source for the Ki values is patent EP0483928A1, “2-Saccharinylmethyl aryl carboxylates useful as proteolytic enzyme inhibitors and compositions and method of use” (STERLING WINTHROP INC., priority 1990, dated 1992).

Structures are written as SMILES. Structures can show the parent of a compound that is named as a salt.

In this test the target is T1, human leukocyte elastase (HLE) (Homo sapiens, UniProt P08246).
T1 sequence (P08246 30-267): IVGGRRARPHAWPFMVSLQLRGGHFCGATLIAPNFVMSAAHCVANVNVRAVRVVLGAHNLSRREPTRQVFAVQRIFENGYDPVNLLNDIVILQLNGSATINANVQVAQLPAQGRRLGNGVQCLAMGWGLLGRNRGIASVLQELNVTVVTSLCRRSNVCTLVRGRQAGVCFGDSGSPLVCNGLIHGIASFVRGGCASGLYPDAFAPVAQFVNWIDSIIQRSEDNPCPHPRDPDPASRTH
In words: Inhibition of human leukocyte elastase: rate of inactivation kon and inhibition constant Ki* (koff/kon). The settings on record: Ki* = koff/kon, calculated from measured koff and kon; not a truly reversible Ki; read-out: K*i. The class given is biochemical.
Experimental: Thus, instead of measuring a Ki, a Ki* is calculated which is defined as the ratio of the koff/kon, the rate of reactivation of the enzyme to the rate of inactivation of the enzyme. The values of koff and kon are measured and Ki* is then calculated.
The rate of inactivation, kon, of enzymatic activity was determined for the compounds tested by measuring the enzyme activity of an aliquot of the respective enzyme as a function of time after addition of the test compound. […] The rate of inactivation is then equal to [formula] where [I] is the concentration of the inhibiting compound.
The reactivation constant, koff, is similarly determined, and the inhibition constant, Ki*, is then calculated as Ki * = koff /kon [formula]
As to `CC(C)c1cc(OCC(O)CO)cc2c1C(=O)N(COC(=O)c1c(Cl)cccc1Cl)S2(=O)=O` (stereo not drawn) [Example 6, 6-(2,3-dihydroxypropoxy)-4-isopropylsaccharinylmethyl 2,6-dichlorobenzoate], the Ki is 0.016 nM.

Regarding `O=C(O)CNS(=O)(=O)c1ccc(Cl)c(C(=O)OCN2C(=O)c3ccccc3S2(=O)=O)c1Cl` [Example 1T], the Ki was 4 nM.

Take `O=C(OCN1C(=O)C2=C(C3CCC2C3)S1(=O)=O)c1c(Cl)cccc1Cl` (stereo not drawn) [Example 8, 2-(2,6-dichlorobenzoyloxymethyl)4,5,6,7-tetrahydro-4,7-methano-1,2-benzisothiazol-3(2H)-one 1,1-dioxide]: the Ki is 0.6 nM.

Turning to `CC(C)c1cccc2c1C(=O)N(COC(=O)c1cccc3ccccc13)S2(=O)=O` [Example 1I], the Ki was 0.48 nM.

With `CC(C)c1cccc2c1C(=O)N(COC(=O)c1cccc(OCc3ccccc3)c1)S2(=O)=O` [Example 1X], the Ki was 0.5 nM.

With `COc1cc(C(C)C)c2c(c1)S(=O)(=O)N(COC(=O)c1ccccc1C(C)C)C2=O` [Example 1BS], the Ki is 0.036 nM.

Regarding `CC(C)c1cccc2c1C(=O)N(COC(=O)c1c3ccccc3cc3ccccc13)S2(=O)=O` [Example 1L], the Ki is 0.3 nM.

For the compound `CCOc1cc(C(C)C)c2c(c1)S(=O)(=O)N(COC(=O)c1c(Cl)ccc(OCCN3CCOCC3)c1Cl)C2=O` [Example 1AX], the Ki is 0.033 nM.

On to `COc1cc(C(C)C)c2c(c1)S(=O)(=O)N(COC(=O)c1c(C)cccc1C)C2=O` [Example 1BM], for which the Ki was 0.08 nM.

Turning to `CC(C)c1cccc2c1C(=O)N(COC(=O)c1c(Cl)ccc(OCCN(C)C)c1Cl)S2(=O)=O` [Example 1AE], the Ki was 0.009 nM.

Consider `COc1cc(C(C)C)c2c(c1)S(=O)(=O)N(COC(=O)c1c(F)cccc1F)C2=O` [Example 1BL], for which the Ki was 0.043 nM.

For `COc1cc(C(C)C)c2c(c1OC)S(=O)(=O)N(COC(=O)c1c(Cl)cccc1Cl)C2=O` [Example 1BF], the Ki was 2 nM.

As to `CN(C)c1cccc2c1C(=O)N(COC(=O)c1c(Cl)cccc1Cl)S2(=O)=O` [Example 11, 4-dimethylamino-2-saccharinylmethyl 2,6-dichlorobenzoate], the Ki is 0.2 nM.

For `CC(C)c1cccc2c1C(=O)N(COC(=O)c1c(Cl)ccc(S(=O)(=O)N3CCOCC3)c1Cl)S2(=O)=O` [Example 1U], the Ki is 0.01 nM.

`CC(C)c1cc(O)cc2c1C(=O)N(COC(=O)c1c(Cl)cccc1Cl)S2(=O)=O` [Example 1C, 4-isopropyl-6-hydroxysaccharinylmethyl 2,6-dichlorobenzoate]: the Ki was 0.4 nM.

In the case of `CC(C)c1cccc2c1C(=O)N(COC(=O)c1c(Cl)ccc(S(=O)(=O)NCC(=O)O)c1Cl)S2(=O)=O` [Example 1W], the Ki is 0.01 nM.

Take `CC(C)c1cccc2c1C(=O)N(COC(=O)c1c(Cl)ccc(OCC(=O)O)c1Cl)S2(=O)=O` [Example 3, 4-isopropyl-2-saccharinylmethyl 2,6-dichloro-3-carboxymethoxybenzoate]: the Ki was 0.01 nM.

For the compound `CCCc1c(OC)c(OC)cc2c1C(=O)N(COC(=O)c1c(Cl)cccc1Cl)S2(=O)=O` [Example 1BA], the Ki was 0.078 nM.

Regarding `CCN(CC)CCOc1ccc(Cl)c(C(=O)OCN2C(=O)c3c(C(C)C)cc(OC)cc3S2(=O)=O)c1Cl` [Example 1AV], the Ki was 0.023 nM.

As for `CC(C)c1cccc2c1C(=O)N(COC(=O)c1ccc(Cl)cc1Cl)S2(=O)=O` [Example 1AO], the Ki was 1 nM.

Take `CC(C)c1cccc2c1C(=O)N(COC(=O)c1c(Cl)ccc(S(=O)(=O)N(C)CCCN(C)C)c1Cl)S2(=O)=O` [Example 1AF]: the Ki is 0.01 nM.

In the case of `CC(C)c1cc(OCC(=O)OCc2ccccc2)cc2c1C(=O)N(COC(=O)c1c(Cl)cccc1Cl)S2(=O)=O` [Example 7B, 6-(2-benzyloxy-2-oxoethoxy)-4-isopropyl-2-saccharinylmethyl 2,6-dichlorobenzoate], the Ki is 0.056 nM.

`COc1cc(C(C)C)c2c(c1)S(=O)(=O)N(COC(=O)c1c(OC)cc(OCc3ccccc3)cc1OC)C2=O` [Example 1BP]: the Ki was 0.35 nM.

With `CC(C)c1cccc2c1C(=O)N(COC(=O)c1c(Cl)ccc(S(=O)(=O)N3CCNCC3)c1Cl)S2(=O)=O` [Example 2B, 4-isopropyl-2-saccharinylmethyl 2,6-dichloro-3-(1-piperazinylsulfonyl)benzoate hydrochloride], the Ki was 0.02 nM.
